# Test results as given in patent US20250032525A1 (priority 2021, published 2025).
# Read-outs that look alike come from different tables or passages of the source.
# How the values were obtained:
# BT-549 [1] = assay: In vitro cytotoxicity (PrestoBlue); settings: Homo sapiens
# Procedure: (§2) Cells were seeded in 40 μl medium on 384 well plates by an automatic liquid handling machine (Hamilton StarLet) in a density of 2500 cells/well. Adherent cells were cultured for 24 h before the addition of the compounds, while drugs were added to non-adherent cells 2 h after cell seeding. The drugs were serially diluted, and dispensed in an additional 20 μl. Cells were incubated for an additional 72 h, cytotoxicity was assessed by the PrestoBlue viability reagent (Thermo Fisher). Experiments were repeated at least 3 times.
# MDA-MB-435 = settings: MDA-MB-435, NCI-60 database, sulforhodamine B; read-out: Cytotoxic IC50; cited from earlier work
# NCI-60 cell lines = assay: NCI DTP NCI-60 cell line screen database (sulforhodamine B), panel; type: cell-based; settings: Homo sapiens
# MDA-MB-231 = settings: MDA-MB-231, NCI-60 database, sulforhodamine B; read-out: Cytotoxic IC50; cited from earlier work
# MALME-3M = settings: NCI-60 database, sulforhodamine B, read-out: Cytotoxic IC50; cited from earlier work
# HS 578T = assay: In vitro cytotoxicity (PrestoBlue); settings: Homo sapiens
# Procedure: as §2
# HCT-116 = settings: HCT-116, NCI-60 database, sulforhodamine B; read-out: Cytotoxic IC50; cited from earlier work
# T-47D [2] = settings: NCI-60 database, sulforhodamine B, read-out: Cytotoxic IC50; cited from earlier work
# MES-SA xenografts = assay: MES-SA xenograft tumors in mice; type: in vivo, NSG mice; settings: MES-SA derived tumors; DOX 2 mg/kg iv. once per week
# Procedure: 2×10^6 cells from each cell line in 200 μl serum-free culture media DMEM were inoculated into NOD.Cg-Prkdc^scid Il2rg^tm1Wjl/SzJ (NSG) mice subcutaneously in the left flank and treatment was initiated when tumors reached 200 mm^3. Mice were treated with saline (n=3 per each cell lines). […] The size of the tumors was measured every second day with a digital caliper.
# BT-549 [3] = settings: BT-549, NCI-60 database, sulforhodamine B; read-out: Cytotoxic IC50; cited from earlier work
# T-47D [4] = assay: In vitro cytotoxicity (PrestoBlue); settings: Homo sapiens, T47D
# Procedure: as §2
# MES-SA = assay: In vitro cytotoxicity; type: cell-based; settings: Homo sapiens
# Description: (§1) Experiments were repeated at least 3 times.
# MES-SA/Dx5 = assay: In vitro cytotoxicity; type: cell-based; settings: Homo sapiens
# Description: as §1
# A498 = settings: A498, NCI-60 database, sulforhodamine B; read-out: Cytotoxic IC50; cited from earlier work
# OVCAR-8 = settings: OVCAR-8, NCI-60 database, sulforhodamine B; read-out: Cytotoxic IC50; cited from earlier work
# SK-MEL-28 [5] = settings: SK-MEL-28, NCI-60 database, sulforhodamine B; read-out: Cytotoxic IC50; cited from earlier work
# CAKI-1 [6] = settings: CAKI-1, NCI-60 database, sulforhodamine B; read-out: Cytotoxic IC50; cited from earlier work
# PC-3 = assay: In vitro cytotoxicity (PrestoBlue); type: cell-based; settings: Homo sapiens, PC-3, 72 h; read-out: Cytotoxic IC50
# Description: as §1
# EKVX = assay: In vitro cytotoxicity (PrestoBlue); type: cell-based; settings: Homo sapiens, 72 h, read-out: Cytotoxic IC50
# Description: as §1
# COLO 205 = assay: In vitro cytotoxicity (PrestoBlue); type: cell-based; settings: Homo sapiens, COLO 205, 72 h; read-out: Cytotoxic IC50
# Description: as §1
# SK-MEL-28 [7] = assay: In vitro cytotoxicity (PrestoBlue); type: cell-based; settings: Homo sapiens, SK-MEL-28, 72 h; read-out: Cytotoxic IC50
# Description: as §1
# OVCAR-3 = assay: In vitro cytotoxicity (PrestoBlue); type: cell-based; settings: Homo sapiens, OVCAR-3, 72 h; read-out: Cytotoxic IC50
# Description: as §1
# NCI-H226 = assay: In vitro cytotoxicity (PrestoBlue); type: cell-based; settings: Homo sapiens, NCI-H226, 72 h; read-out: Cytotoxic IC50
# Description: as §1
# CAKI-1 [8] = assay: In vitro cytotoxicity (PrestoBlue); type: cell-based; settings: Homo sapiens, CAKI-1, 72 h; read-out: Cytotoxic IC50
# Description: as §1
# [9] = Storage stability of PyDau; type: physicochemical; settings: monomer form, −20° C.
# Procedure: 2-pyrrolinodoxorubicin (PyDox) TFA salt was developed in 1996 (Nagy A. et al.; Proc. Natl. Acad. Sci. U.S.A. 93 (1996). 2464-2469). In the first step Nagy et al. applied 4-iodobutyraldehyde, that was prepared from 2-(3-chloropropyl)-1,3-dioxolane followed by Shiff-base formation and cyclization. The synthesis of 4-iodobutyraldehyde—which is the key step for efficient synthesis-was later improved by Studenovsky et al. (Eur. J. Pharm. Sci. 42 (2011). 156-163). […] Therefore, a new approach was investigated for the preparation of PyDau. First, the stable and storable 4-bromobutyraldehyde was applied for the synthesis. The reaction was carried out in DCM in the presence of excess DIPEA under nitrogen atmosphere at room temperature (RT) for 10 h.
# [10] = system: panel of cell lines of various tissue of origin; assay: In vitro cytotoxicity, panel of cell lines (PrestoBlue); type: cell-based, human; settings: for IC50: Homo sapiens
# Description: as §1
smiles,measurement,setting,value
"COc1cccc2c1C(=O)c1c(O)c3c(c(O)c1C2=O)C[C@@](O)(C(=O)CO)C[C@@H]3O[C@H]1C[C@H](N)[C@H](O)[C@H](C)O1 [DOX, doxorubicin]",IC50,BT-549 [1]; BT-549,20 nM
same,IC50,MDA-MB-435,258 nM
same,IC50,"NCI-60 cell lines; read-out: Cytotoxic IC50, av. breast",190 nM
same,IC50,"NCI-60 cell lines; read-out: Cytotoxic IC50, av. colorectal",296 nM
same,IC50,"NCI-60 cell lines; read-out: Cytotoxic IC50, av. leukaemia",49.8 nM
same,IC50,"NCI-60 cell lines; read-out: Cytotoxic IC50, av. lung",221 nM
same,IC50,"NCI-60 cell lines; read-out: Cytotoxic IC50, av. melanoma",177 nM
same,IC50,"NCI-60 cell lines; read-out: Cytotoxic IC50, av. ovarian",3650 nM
same,IC50,"NCI-60 cell lines; read-out: Cytotoxic IC50, av. prostatic",173 nM
same,IC50,"NCI-60 cell lines; read-out: Cytotoxic IC50, av. renal",247 nM
same,IC50,MDA-MB-231,383 nM
same,IC50,MALME-3M,51.9 nM
same,IC50,HS 578T,80 nM
same,IC50,HCT-116,66.1 nM
same,IC50,T-47D [2],83 nM
same,Overall survival,MES-SA xenografts,increased the overall survival
same,IC50,BT-549 [3],212 nM
same,IC50,T-47D [4],30 nM
same,IC50,"MES-SA; presence of 1 μM tariquidar, read-out: IC50 + TQ",20 nM
same,IC50,MES-SA; read-out: IC50,72 nM
same,IC50,"MES-SA/Dx5; MES-SA/Dx5, read-out: IC50",2880 nM
same,IC50,"MES-SA/Dx5; MES-SA/Dx5, presence of 1 μM tariquidar, read-out: IC50 + TQ",20 nM
same,IC50,A498,85.5 nM
same,IC50,OVCAR-8,130 nM
same,IC50,SK-MEL-28 [5],242 nM
same,IC50,CAKI-1 [6],190 nM
"COc1cccc2c1C(=O)c1c(O)c3c(c(O)c1C2=O)C[C@@](O)(C(C)=O)C[C@@H]3O[C@H]1C[C@H]2[C@H](OC3CCCN32)[C@H](C)O1 (stereo partly drawn) [PyDau, 2-deamino-2-pyrrolino-daunorubicin]",IC50,"BT-549 [1]; BT-549, 72 h, read-out: Cytotoxic IC50",4.68 nM
same,IC50,PC-3,2.54 nM
same,IC50,EKVX,3.67 nM
same,IC50,COLO 205,2.38 nM
same,IC50,SK-MEL-28 [7],6.87 nM
same,IC50,OVCAR-3,1.22 nM
same,IC50,NCI-H226,4.44 nM
same,IC50,CAKI-1 [8],1.4 nM
same,IC50,"HS 578T; 72 h, read-out: Cytotoxic IC50",1.77 nM
same,IC50,"T-47D [4]; 72 h, read-out: Cytotoxic IC50",4.25 nM
same,IC50,MES-SA,1.35 nM
same,IC50,MES-SA/Dx5; MES-SA/Dx5,2.51 nM
same,Stability on storage,[9],stable for long time
same,IC50,"[10]; average IC50 within the breast group, read-out: Cytotoxic IC50, av. breast",3.23 nM
same,IC50,"[10]; average IC50 within the colorectal group, read-out: Cytotoxic IC50, av. colorectal",3.39 nM
same,IC50,"[10]; average IC50 within the leukaemia group, read-out: Cytotoxic IC50, av. leukaemia",0.57 nM
same,IC50,"[10]; average IC50 within the lung group, read-out: Cytotoxic IC50, av. lung",4.21 nM
same,IC50,"[10]; average IC50 within the melanoma group, read-out: Cytotoxic IC50, av. melanoma",4.08 nM
same,IC50,"[10]; average IC50 within the ovarian group, read-out: Cytotoxic IC50, av. ovarian",1.43 nM
same,IC50,"[10]; average IC50 within the pancreatic group, read-out: Cytotoxic IC50, av. pancreatic",3.23 nM
same,IC50,"[10]; average IC50 within the prostate group, read-out: Cytotoxic IC50, av. prostatic",1.93 nM
same,IC50,"[10]; average IC50 within the renal group, read-out: Cytotoxic IC50, av. renal",5.2 nM
same,IC50,"[10]; panel of cell lines, FIG. 1, read-out: IC50 values ranging across every cell line of the panel",0.23 to 14.3 nM
same,IC50,"[10]; panel of cell lines, typical range, read-out: IC50 values, typically",1 to 10 nM
same,Effectiveness against multidrug resistant cells,[10]; Pgp expressing multidrug resistant HCT-15 and NCI/ADR-RES cells,effective
